The values that follow come from patent publication EP0350948B1, “Porphyrin derivatives” (TOYOHAKKA KOGYO KABUSHIKI KAISHA, priority 1988, dated 1990).

The test system of data set [1] is nitrosoamine-induced pancreatic cancer. Briefly: in vivo hemorrhagic necrosis effect. Conditions: for Hemorrhagic necrosis effect: intensity of hemorrhagic necrosis at 24 hours following i.v. administration, and pathological study; for photograph of a cancer mass (Fig. 2) / photograph of a cancer mass (Fig. 1): 24 hours after administration, Cn-Ga-DP-diAsp; for photograph of a cancer mass (Fig. 2): n = even numbers; for photograph of a cancer mass (Fig. 1): n = odd numbers. Further details: species or system hamsters; key to Hemorrhagic necrosis effect: four scales of G4, G3, G2 and G1; four scales of G4, G3, G2 and G1; four scales of G4, G3, G2 and G1; four scales of G4, G3, G2 and G1. The method, then:
Cancer bearing hamsters of Experiment 1 were i.v. administered the test substance C6-Ga-DP-diAsp (10) (10 mg/ml) which had been diluted with phosphate buffer at 25 mg/kg bodyweight and 12.5 mg/kg bodyweight respectively. The animals were exsanguinated and autopsied at 24 hours after administration, and observed.
The evaluation was based on the four scales of G4, G3, G2 and G1.

Data set [2] has the same test system. The experiment in a line: laser irradiation to the extirpated organ (excited fluorescent spectrum, N2-PLS measurement), tumor to tissue ratio. It counts as in vivo, Golden hamsters. Conditions: i.v. 25 mg/kg bodyweight, organs extirpated at 24 hours after administration. As for the experimental part: Golden hamsters (males, 5 per group, bodyweight approximately 150 g) were implanted subcutaneously tumor cells of the nitrosoamine-induced pancreatic cancer. After 14 to 21 days following implantation, animals were intravenously (i.v.) administered the test substance EG-Ga-DP-diGly (10 mg/ml) which had been diluted with phosphate buffer at 25 mg/kg bodyweight. At 24 hours after administration, the organs including the tumor were extirpated, irradiated with N2-pulsed laser (N2, 337 nm, 2 ns, 400 - 1000 nm), and measured of excited fluorescent spectrum. The wavelengths of 600 - 900 nm were studied using the peak wavelength of NADH at 470 nm as a reference. (N2-PLS measurement). […] (Tumor to tissue ratio).
Excited fluorescent spectra of the organs extirpated at 24 hours after administration were measured, and the peak wavelength at 600 - 900 nm was calculated by setting the peak wavelength at 470 nm as the reference 1. As fluorescence in Mn, Fe and Cu complexes is not sufficiently intense as to enable N2-PLS measurement, the extraction method was applied to these compounds. At 24 hours following administration, the organs were extracted with an organic solvent (such as chloroform-methanol) via acetone powder, and the obtained extract was measured of UV or HPLC to calculate the tumor to tissue ratio.

As to `COC(C)C1=C(C)C2=Cc3c(C(C)OC)c(C)c4[n]3[Ga][n]3c(c(C)c(CCC(=O)NC(CC(=O)O)C(=O)O)c3=CC3=NC(=C4)C(C)=C3CCC(=O)NC(CC(=O)O)C(=O)O)=CC1=N2` (stereo not shown) [(4) C1-Ga-DP-diAsp, 2,4-bis(1-methoxyethyl)-Ga-deuteroporphynyl diaspartic acid], in data set [1], the Hemorrhagic necrosis effect entry is reported as “G1”. Moreover, in data set [2], the tumor/tissue cancer/ kidney is given as 2.27, the tumor/tissue cancer/ liver was 1.19, the tumor/tissue cancer/ lung was found to be 0.78 and the tumor/tissue cancer/ serum worked out at 2.50.

On to `CCOC(C)C1=C(C)C2=Cc3c(C(C)OCC)c(C)c4[n]3[Ga][n]3c(c(C)c(CCC(=O)NC(CC(=O)O)C(=O)O)c3=CC3=NC(=C4)C(C)=C3CCC(=O)NC(CC(=O)O)C(=O)O)=CC1=N2` (stereo not shown) [(5) C2-Ga-DP-diAsp, 2,4-bis(1-ethoxyethyl)-Ga-deuteroporphynyl diaspartic acid], for which, in data set [1], the “photograph of a cancer mass (Fig. 2)” value is recorded as “hemorrhagic necrosis” and the Hemorrhagic necrosis effect entry is “G1”. In addition, in data set [2], the tumor/tissue cancer/ kidney is 1.25, the tumor/tissue cancer/ liver is on record as 0.71, the tumor/tissue cancer/ lung is 1.25 and the tumor/tissue cancer/ serum was found to be 1.16.

Consider `CCCOC(C)C1=C(C)C2=Cc3c(C(C)OCCC)c(C)c4[n]3[Ga][n]3c(c(C)c(CCC(=O)NC(CC(=O)O)C(=O)O)c3=CC3=NC(=C4)C(C)=C3CCC(=O)NC(CC(=O)O)C(=O)O)=CC1=N2` (stereo not shown) [(6) C3-Ga-DP-diAsp, 2,4-bis(1-propoxyethyl)-Ga-deuteroporphynyl diaspartic acid], for which, in data set [1], the “photograph of a cancer mass (Fig. 1)” value is “hemorrhagic necrosis” and the Hemorrhagic necrosis effect result is recorded as “G2”. Besides, in data set [2], the tumor/tissue cancer/ kidney is on record as 14.44, the tumor/tissue cancer/ liver is given as 2.95, the tumor/tissue cancer/ lung was 3.42 and the tumor/tissue cancer/ serum is listed as 5.91.

Take `CC1=C(CCC(=O)NC(CC(=O)O)C(=O)O)C2=NC1=Cc1c(C)c(C(C)OC(C)C)c3[n]1[Ga][n]1c(c(C)c(CCC(=O)NC(CC(=O)O)C(=O)O)c1=C2)=CC1=NC(=C3)C(C)=C1C(C)OC(C)C` (stereo not shown) [(7) C3(iso)-Ga-DP-diAsp, 2,4-bis(1-isopropoxyethyl)-Ga-deuteroporphynyl diaspartic acid]: the Hemorrhagic necrosis effect result in data set [1] is reported as “G2”. Also, in data set [2], the tumor/tissue cancer/ kidney came out at 3.03, the tumor/tissue cancer/ liver is on record as 2.63, the tumor/tissue cancer/ lung amounted to 2.33 and the tumor/tissue cancer/ serum is recorded as 1.54.

On to `CCCCOC(C)C1=C(C)C2=Cc3c(C(C)OCCCC)c(C)c4[n]3[Ga][n]3c(c(C)c(CCC(=O)NC(CC(=O)O)C(=O)O)c3=CC3=NC(=C4)C(C)=C3CCC(=O)NC(CC(=O)O)C(=O)O)=CC1=N2` (stereo not shown) [(8) C4-Ga-DP-diAsp, 2,4-bis(1-butoxyethyl)-Ga-deuteroporphynyl diaspartic acid], for which, in data set [1], the “photograph of a cancer mass (Fig. 2)” value is “hemorrhagic necrosis”, the “photograph of a cancer mass (Fig. 1)” value was “hemorrhagic necrosis” and the Hemorrhagic necrosis effect entry is given as “G4”. Moreover, in data set [2], the tumor/tissue cancer/ kidney worked out at 7.72, the tumor/tissue cancer/ liver stood at 3.54, the tumor/tissue cancer/ lung amounted to 4.47 and the tumor/tissue cancer/ serum was determined as 2.00.

On to `CCCCCOC(C)C1=C(C)C2=Cc3c(C(C)OCCCCC)c(C)c4[n]3[Ga][n]3c(c(C)c(CCC(=O)NC(CC(=O)O)C(=O)O)c3=CC3=NC(=C4)C(C)=C3CCC(=O)NC(CC(=O)O)C(=O)O)=CC1=N2` (stereo not shown) [(9) C5-Ga-DP-diAsp, 2,4-bis(1-pentyloxyethyl)-Ga-deuteroporphynyl diaspartic acid], for which, in data set [1], the “photograph of a cancer mass (Fig. 1)” value is “hemorrhagic necrosis” and the Hemorrhagic necrosis effect entry is on record as “G4”. Besides, in data set [2], the tumor/tissue cancer/ kidney stood at 6.58, the tumor/tissue cancer/ liver was 4.07, the tumor/tissue cancer/ lung was 3.89 and the tumor/tissue cancer/ serum was 0.89.

On to `CCCCCCCOC(C)C1=C(C)C2=Cc3c(C(C)OCCCCCCC)c(C)c4[n]3[Ga][n]3c(c(C)c(CCC(=O)NC(CC(=O)O)C(=O)O)c3=CC3=NC(=C4)C(C)=C3CCC(=O)NC(CC(=O)O)C(=O)O)=CC1=N2` (stereo not shown) [(11) C7-Ga-DP-diAsp, 2,4-bis(1-heptyloxyethyl)-Ga-deuteroporphynyl diaspartic acid], for which, in data set [1], the “photograph of a cancer mass (Fig. 1)” value is on record as “hemorrhagic necrosis” and the Hemorrhagic necrosis effect result is “G4”. Further, in data set [2], the tumor/tissue cancer/ kidney is 4.88, the tumor/tissue cancer/ liver is 2.96, the tumor/tissue cancer/ lung worked out at 2.92 and the tumor/tissue cancer/ serum is 0.89.

For `CC1=C(CCC(=O)NC(CC(=O)O)C(=O)O)C2=NC1=Cc1c(C)c(C(C)OCCc3ccccc3)c3[n]1[Ga][n]1c(c(C)c(CCC(=O)NC(CC(=O)O)C(=O)O)c1=C2)=CC1=NC(=C3)C(C)=C1C(C)OCCc1ccccc1` (stereo not shown) [(14) C8(Phenethyl)-Ga-DP-diAsp, 2,4-bis(1-phenethyloxyethyl)-Ga-deuteroporphynyl diaspartic acid], the Hemorrhagic necrosis effect result in data set [1] was “G1”. Besides, in data set [2], the tumor/tissue cancer/ kidney was 3.79, the tumor/tissue cancer/ liver was found to be 3.79, the tumor/tissue cancer/ lung is reported as 2.89 and the tumor/tissue cancer/ serum is 0.72.

With `CCCCCCCCCOC(C)C1=C(C)c2cc3[nH]c(cc4nc(cc5[nH]c(cc1n2)c(C)c5C(C)OCCCCCCCCC)C(C)=C4CCC(=O)NC(CC(=O)O)C(=O)O)c(CCC(=O)NC(CC(=O)O)C(=O)O)c3C.[Ga]` (stereo not shown) [(15) C9-Ga-DP-diAsp, 2,4-bis(1-nonyloxyethyl)-Ga-deuteroporphynyl diaspartic acid], in data set [1], the “photograph of a cancer mass (Fig. 1)” value is listed as “hemorrhagic necrosis” and the Hemorrhagic necrosis effect result was “G2”. In addition, in data set [2], the tumor/tissue cancer/ kidney came out at 3.54, the tumor/tissue cancer/ liver stood at 2.07, the tumor/tissue cancer/ lung came out at 3.40 and the tumor/tissue cancer/ serum is on record as 1.12.

For the compound `CC(C)=CCC/C(C)=C/COC(C)C1=C(C)C2=Cc3c(C(C)OC/C=C(\C)CCC=C(C)C)c(C)c4[n]3[Ga][n]3c(c(C)c(CCC(=O)NC(CC(=O)O)C(=O)O)c3=CC3=NC(=C4)C(C)=C3CCC(=O)NC(CC(=O)O)C(=O)O)=CC1=N2` (stereo not shown) [(17) C10(Gera)-Ga-DP-diAsp, 2,4-bis(1-geranyloxyethyl)-Ga-deuteroporphynyl diaspartic acid], in data set [1], the Hemorrhagic necrosis effect entry is “G2”. Also, in data set [2], the tumor/tissue cancer/ kidney is given as 3.82, the tumor/tissue cancer/ liver was found to be 3.33, the tumor/tissue cancer/ lung is 4.88 and the tumor/tissue cancer/ serum is given as 2.19.

Turning to `CC(C)=CCCC(C)CCOC(C)C1=C(C)C2=Cc3c(C(C)OCCC(C)CCC=C(C)C)c(C)c4[n]3[Ga][n]3c(c(C)c(CCC(=O)NC(CC(=O)O)C(=O)O)c3=CC3=NC(=C4)C(C)=C3CCC(=O)NC(CC(=O)O)C(=O)O)=CC1=N2` (stereo not shown) [(18) C10(Citro)-Ga-DP-diAsp, 2,4-bis(1-citronellyloxyethyl)-Ga-deuteroporphynyl diaspartic acid], the Hemorrhagic necrosis effect result in data set [1] was “G2”. Further, in data set [2], the tumor/tissue cancer/ kidney turned out to be 15.66, the tumor/tissue cancer/ liver is given as 11.37, the tumor/tissue cancer/ lung turned out to be 12.39 and the tumor/tissue cancer/ serum was determined as 2.82.

In the case of `CC1=C(CCC(=O)NC(CC(=O)O)C(=O)O)C2=NC1=Cc1c(C)c(C(C)OCCC(C)CCCC(C)C)c3[n]1[Ga][n]1c(c(C)c(CCC(=O)NC(CC(=O)O)C(=O)O)c1=C2)=CC1=NC(=C3)C(C)=C1C(C)OCCC(C)CCCC(C)C` (stereo not shown) [(19) C10(H2Citro)-Ga-DP-diAsp, 2,4-bis(1-dihydrocitronellyloxyethyl)-Ga-deuteroporphynyl diaspartic acid], the Hemorrhagic necrosis effect entry in data set [1] is given as “G2”. In data set [2], the tumor/tissue cancer/ kidney was 11.49, the tumor/tissue cancer/ liver is reported as 9.09, the tumor/tissue cancer/ lung is on record as 11.11 and the tumor/tissue cancer/ serum was 3.50.

As to `CCCCCCCCCCCCOC(C)C1=C(C)c2cc3[nH]c(cc4nc(cc5[nH]c(cc1n2)c(C)c5C(C)OCCCCCCCCCCCC)C(C)=C4CCC(=O)NC(CC(=O)O)C(=O)O)c(CCC(=O)NC(CC(=O)O)C(=O)O)c3C.[Ga]` (stereo not shown) [(22) C12-Ga-DP-diAsp, 2,4-bis (1-dodecyloxyethyl)-Ga-deuteroporphynyl diaspartic acid], in data set [1], the “photograph of a cancer mass (Fig. 2)” value is “hemorrhagic necrosis” and the Hemorrhagic necrosis effect entry is recorded as “G2”. In addition, in data set [2], the tumor/tissue cancer/ kidney was determined as 8.54, the tumor/tissue cancer/ liver is 4.38, the tumor/tissue cancer/ lung came to 7.00 and the tumor/tissue cancer/ serum was found to be 1.35.
